Assay results reported in US10517889B2, “Modulators of SMAD7 expression” (Ionis Pharmaceuticals, Inc., priority 2017, dated 2019).
Strand notation (5' to 3'): a small letter for the sugar, then the base; units joined by * are phosphorothioate-linked, units joined directly phosphodiester-linked; [ ] holds rarer units or linkages, { } end groups; capitals alone tell only the bases. k = constrained ethyl (cEt); [5mC] = 5-methylcytosine; d = 2'-deoxy (DNA)

Each substance was assayed on human SMAD7 mRNA (assay: Antisense inhibition of human SMAD7 mRNA expression in Hep3B cells by 3-10-3 cEt gapmers, 10,000 nM, electroporation (Example 2)). Details: Hep3B cells, 10,000 nM antisense oligonucleotide, electroporation, approximately 24 hours, RT-PCR primer probe set RTS5062, relative to untreated control cells.
Assay type: cell-based
How it was run: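 qRT-PCR (RTS5062) of SMAD7 mRNA, normalised to RIBOGREEN total RNA, gave percent inhibition relative to untreated controls. Hep3B cells at 20,000 per well received 10,000 nM oligonucleotide by electroporation, with ~24 h treatment.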

Substance	% Inhibition [%]
800094 (antisense kA*kT*kG*dG*dA*dA*d[5mC]*d[5mC]*dT*dT*dG*dA*dA*kG*kG*k[5mC]) [compound 800094]	49
799897 (antisense kT*k[5mC]*kT*d[5mC]*dT*dT*dA*d[5mC]*d[5mC]*dT*d[5mC]*dA*d[5mC]*k[5mC]*k[5mC]*kA) [compound 799897]	27
798819 (kT*k[5mC]*k[5mC]*d[5mC]*dA*dG*dT*dA*dT*dG*d[5mC]*d[5mC]*dA*k[5mC]*k[5mC]*kA; antisense) [compound 798819]	0

Same assay, conditions: Hep3B cells, electroporation with 10,000 nM antisense oligonucleotide, approximately 24 hours, RTS5062, percent inhibition of SMAD7 mRNA relative to untreated control cells

Substance	% Inhibition [%]
799529 (kG*kA*kA*dT*dT*dT*d[5mC]*dT*d[5mC]*dT*dT*dG*d[5mC]*kA*kT*kT; antisense) [compound 799529]	27
799703 (antisense k[5mC]*k[5mC]*kA*dA*dT*dG*dG*d[5mC]*dA*dT*dT*dG*dA*kA*kT*kA) [compound 799703]	45

Same assay, conditions: Hep3B cells, electroporation with 10,000 nM antisense oligonucleotide, approximately 24 hours, SMAD7 mRNA by RT-PCR (RTS5062), relative to untreated control cells

Substance	% Inhibition [%]
790510 (k[5mC]*k[5mC]*k[5mC]*d[5mC]*dT*dG*dA*dG*dG*dT*dA*dG*dA*kT*k[5mC]*kA; antisense) [compound 790510]	33
799888 (antisense kG*kG*kA*d[5mC]*dA*dA*dA*dA*d[5mC]*d[5mC]*d[5mC]*d[5mC]*dT*kA*kG*kA) [compound 799888]	22
772565 (antisense kA*kA*kT*dG*d[5mC]*d[5mC]*dT*dG*dA*dG*dA*dT*d[5mC]*k[5mC]*kG*kG) [compound 772565]	64
798718 (antisense kA*kT*k[5mC]*d[5mC]*dA*dG*d[5mC]*d[5mC]*d[5mC]*dT*dG*d[5mC]*d[5mC]*k[5mC]*kG*kG) [compound 798718]	37
799920 (antisense kG*kA*kT*dG*dA*dA*dT*dG*d[5mC]*dT*d[5mC]*d[5mC]*dT*kA*kA*kG) [compound 799920]	0
830175 (antisense kT*k[5mC]*kT*d[5mC]*dA*dA*d[5mC]*dA*dG*dA*d[5mC]*d[5mC]*dA*k[5mC]*kA*k[5mC]) [compound 830175]	44
798843 (k[5mC]*kT*kG*d[5mC]*dA*d[5mC]*d[5mC]*dA*dG*d[5mC]*dT*dG*dA*k[5mC]*kT*k[5mC]; antisense) [compound 798843]	37
830169 (antisense k[5mC]*kT*k[5mC]*dT*dG*dT*dT*dT*dG*dG*dA*d[5mC]*dA*kA*kG*kT) [compound 830169]	58
799947 (antisense kT*k[5mC]*kT*dA*dA*dA*dG*d[5mC]*d[5mC]*dA*d[5mC]*d[5mC]*dA*kA*kG*k[5mC]) [compound 799947]	28
830149 (antisense kA*kG*kG*dA*d[5mC]*dT*dG*dG*dT*d[5mC]*dT*dT*d[5mC]*kA*k[5mC]*k[5mC]) [compound 830149]	47
798879 (kA*k[5mC]*kG*dG*d[5mC]*dT*dG*d[5mC]*dT*dG*d[5mC]*dA*dT*kA*kA*kA; antisense) [compound 798879]	57
830030 (antisense kA*k[5mC]*k[5mC]*dT*dA*dA*dT*dG*dT*d[5mC]*dA*dA*d[5mC]*kA*k[5mC]*kT) [compound 830030]	36
799354 (kA*kT*k[5mC]*dT*dA*d[5mC]*dT*d[5mC]*dA*d[5mC]*d[5mC]*dA*dG*kT*kT*kG; antisense) [compound 799354]	0
798885 (kG*k[5mC]*kA*d[5mC]*dG*dG*dT*dA*dA*dA*dG*d[5mC]*d[5mC]*k[5mC]*kG*kT; antisense) [compound 798885]	43
798901 (k[5mC]*k[5mC]*kT*d[5mC]*dT*dA*dG*d[5mC]*d[5mC]*dA*dG*d[5mC]*dA*k[5mC]*kG*kG; antisense) [compound 798901]	30
830205 (kG*kA*k[5mC]*dT*d[5mC]*dA*dT*d[5mC]*dA*dG*dG*d[5mC]*dA*kT*kT*k[5mC]; antisense) [compound 830205]	26
799863 (kG*kG*k[5mC]*dT*d[5mC]*d[5mC]*d[5mC]*d[5mC]*d[5mC]*dA*d[5mC]*d[5mC]*dG*k[5mC]*kA*kT; antisense) [compound 799863]	16

Same assay, conditions: Hep3B cells, electroporation with 10,000 nM antisense oligonucleotide, approximately 24 hours, primer probe set RTS5062, relative to untreated control cells

Substance	% inhibition of SMAD7 mRNA expression [%]	% Inhibition [%]
799045 (kG*kG*kA*d[5mC]*dA*dG*dA*dG*d[5mC]*d[5mC]*dG*dT*dG*k[5mC]*kT*k[5mC]; antisense) [compound 799045]	37	
799130 (antisense kG*kT*k[5mC]*d[5mC]*d[5mC]*dT*d[5mC]*d[5mC]*d[5mC]*dA*dG*dG*dG*kA*k[5mC]*kA) [compound 799130]	1	
799006 (k[5mC]*kG*k[5mC]*dT*d[5mC]*d[5mC]*dT*dG*d[5mC]*dA*d[5mC]*dA*d[5mC]*kG*k[5mC]*kG; antisense) [compound 799006]	0	
799113 (antisense kG*kA*kT*dG*dG*dG*dA*dG*d[5mC]*dA*dG*dG*d[5mC]*kA*kG*kT) [compound 799113]		57
799189 (antisense kA*kA*kT*dG*d[5mC]*dT*dT*d[5mC]*dT*d[5mC]*dT*dT*dG*kT*kT*k[5mC]) [compound 799189]	33	
798963 (antisense kT*kT*k[5mC]*dT*dT*d[5mC]*d[5mC]*dA*dA*dA*dA*dA*dA*kA*k[5mC]*k[5mC]) [compound 798963]	13	
799157 (antisense kG*kT*kT*dG*dT*dA*dG*dA*dA*dG*dA*dA*dA*kT*kG*kA) [compound 799157]		39
799086 (antisense kG*kG*k[5mC]*dA*dG*d[5mC]*d[5mC]*d[5mC]*dT*dT*dG*dG*dG*kA*kA*kG) [compound 799086]	0	
772709 (kT*kA*kA*dA*dG*d[5mC]*dA*dA*dA*dG*dT*dG*d[5mC]*kA*kT*k[5mC]; antisense) [compound 772709]	0	
798935 (antisense kA*kA*kA*dG*d[5mC]*dA*dA*dG*d[5mC]*dA*d[5mC]*dT*d[5mC]*kA*kG*kG) [compound 798935]		48
798961 (antisense kA*kA*kA*dA*d[5mC]*d[5mC]*d[5mC]*d[5mC]*d[5mC]*dA*dA*d[5mC]*dA*kA*kT*kT) [compound 798961]		0
798657 (k[5mC]*k[5mC]*kG*d[5mC]*dG*d[5mC]*dG*dG*d[5mC]*d[5mC]*d[5mC]*dG*d[5mC]*kG*k[5mC]*k[5mC]; antisense) [compound 798657]	0	

Same assay, conditions: Hep3B cells, electroporation, 10,000 nM antisense oligonucleotide, approximately 24 hours, RTS5062, relative to untreated control cells

Substance	% inhibition of SMAD7 mRNA expression [%]
799503 (antisense kG*kG*k[5mC]*d[5mC]*dA*d[5mC]*d[5mC]*dA*dG*dG*dA*d[5mC]*dA*kA*kT*kG) [compound 799503]	0
799597 (kA*kA*k[5mC]*dT*d[5mC]*dT*dG*dA*dA*d[5mC]*dG*dG*dA*kA*kA*kG; antisense) [compound 799597]	46
799776 (k[5mC]*kA*kG*dA*dA*dG*dG*dA*d[5mC]*d[5mC]*dA*dA*dG*kT*k[5mC]*k[5mC]; antisense) [compound 799776]	11
799653 (antisense kA*k[5mC]*k[5mC]*d[5mC]*dA*d[5mC]*dT*d[5mC]*dA*dA*dA*d[5mC]*d[5mC]*kA*kG*kG) [compound 799653]	51

Same assay, conditions: SMAD7 mRNA, Hep3B cells, 10,000 nM antisense oligonucleotide, electroporation, approximately 24 hours, primer probe set RTS5062, relative to untreated control cells

Substance	% Inhibition [%]
829753 (antisense kT*k[5mC]*k[5mC]*d[5mC]*d[5mC]*dG*d[5mC]*dA*dG*d[5mC]*dT*d[5mC]*dG*k[5mC]*k[5mC]*kT) [compound 829753]	29
800843 (antisense kT*k[5mC]*kG*dG*d[5mC]*d[5mC]*dA*d[5mC]*dA*d[5mC]*dA*d[5mC]*d[5mC]*kT*k[5mC]*kA) [compound 800843]	32
829733 (antisense kA*k[5mC]*k[5mC]*dA*dT*dG*dA*dA*dG*dA*dA*dG*dT*k[5mC]*kG*kG) [compound 829733]	54

Same assay, conditions: SMAD7 mRNA, Hep3B cells, electroporation with 10,000 nM antisense oligonucleotide, approximately 24 hours, primer probe set RTS5062, relative to untreated control cells

Substance	% Inhibition [%]
829993 (kG*kG*k[5mC]*dA*dG*dG*dG*d[5mC]*d[5mC]*dG*d[5mC]*dG*dA*kG*kG*k[5mC]; antisense) [compound 829993]	26
829848 (antisense kT*kT*kG*dT*d[5mC]*d[5mC]*dG*dA*dA*dT*dT*dG*dA*kG*k[5mC]*kT) [compound 829848]	47
829873 (antisense kT*kT*kG*dT*d[5mC]*d[5mC]*dA*dG*dT*dG*dT*dG*dG*k[5mC]*kG*kG) [compound 829873]	52
829843 (antisense kG*kA*kA*dT*dT*dG*dA*dG*d[5mC]*dT*dG*dT*d[5mC]*k[5mC]*kG*kA) [compound 829843]	49
830008 (antisense kT*kA*kG*dA*dG*dG*d[5mC]*dT*d[5mC]*dT*dA*dT*dT*kT*k[5mC]*kT) [compound 830008]	0
829884 (antisense kT*kG*k[5mC]*dA*dG*dG*d[5mC]*dT*dG*dT*dA*d[5mC]*dG*k[5mC]*k[5mC]*kT) [compound 829884]	24
829950 (kT*k[5mC]*k[5mC]*dG*dG*dG*d[5mC]*dA*dG*d[5mC]*d[5mC]*dA*dG*kT*kT*kA; antisense) [compound 829950]	43
829933 (kG*kT*kG*dA*dT*dA*dA*d[5mC]*dA*d[5mC]*d[5mC]*d[5mC]*dA*kT*kA*kG; antisense) [compound 829933]	38
